In patent US9694016B2 (Novartis AG, priority 2013, dated 2017):
Like-named read-outs stand apart in the source and are kept apart here.

Biological target: b-Raf (V600E) (Homo sapiens (Human), UniProt P15056, V600E)
Details: read-out: b-Raf IC-50
[1] = AlphaScreen, 60 min pre-incubation, 3 hours reaction
[2] = AlphaScreen, 60 min pre-incubation, reaction 3 hours at room temperature
[3] = Table 2, AlphaScreen, 3 hours reaction

Chain of b-Raf (V600E) (P15056 whole entry V600E): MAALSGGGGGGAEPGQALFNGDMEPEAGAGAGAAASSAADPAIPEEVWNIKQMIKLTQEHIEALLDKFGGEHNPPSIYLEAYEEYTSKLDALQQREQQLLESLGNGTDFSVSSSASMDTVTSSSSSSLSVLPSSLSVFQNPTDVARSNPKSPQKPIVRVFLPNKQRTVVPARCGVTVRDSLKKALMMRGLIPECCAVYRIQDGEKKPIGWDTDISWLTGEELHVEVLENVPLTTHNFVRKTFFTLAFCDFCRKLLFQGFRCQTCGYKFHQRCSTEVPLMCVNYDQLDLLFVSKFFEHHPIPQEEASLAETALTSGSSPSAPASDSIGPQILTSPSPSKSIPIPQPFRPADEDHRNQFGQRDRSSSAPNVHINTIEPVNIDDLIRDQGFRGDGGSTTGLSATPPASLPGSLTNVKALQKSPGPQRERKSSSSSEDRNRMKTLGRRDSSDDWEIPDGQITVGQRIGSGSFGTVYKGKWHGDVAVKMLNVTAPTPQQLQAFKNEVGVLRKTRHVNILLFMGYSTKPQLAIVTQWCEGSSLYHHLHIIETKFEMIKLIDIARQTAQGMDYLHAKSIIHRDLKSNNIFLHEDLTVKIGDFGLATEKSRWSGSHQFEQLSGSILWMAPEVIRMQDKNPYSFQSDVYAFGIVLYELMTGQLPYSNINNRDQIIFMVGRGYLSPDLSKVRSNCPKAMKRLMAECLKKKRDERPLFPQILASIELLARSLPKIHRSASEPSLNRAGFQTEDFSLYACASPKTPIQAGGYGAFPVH

Structure (SMILES): Cc1ncc(NC(=O)c2ccnc(C(F)F)c2)cc1-c1cc(N2CCOCC2)n(C)c(=O)c1 [Example 508, 2-(difluoromethyl)-N-(1′,2-dimethyl-6′-morpholino-2′-oxo-1′,2′-dihydro-[3,4′-bipyridin]-5-yl)isonicotinamide]
- IC50 [1]: 7.8 nM

Structure (SMILES): Cc1ccc(NC(=O)c2ccnc(S(C)(=O)=O)c2)cc1-c1cnc(OC(C)C)c(N2CCOCC2)c1 [Example 950, N-(3-(6-isopropoxy-5-morpholinopyridin-3-yl)-4-methylphenyl)-2-(methylsulfonyl)isonicotinamide]
- IC50 [2]: 0.47 nM

Structure (SMILES): CCOc1nnc(-c2cc(NC(=O)c3cccc(C(F)(F)F)c3)cnc2C)cc1N1CCOC[C@H]1C [Example 622, (R)—N-(5-(6-ethoxy-5-(3-methylmorpholino)pyridazin-3-yl)-6-methylpyridin-3-yl)-3-(trifluoromethyl)benzamide]
- IC50 [1]: 4.9 nM

Structure (SMILES): Cc1ccc(NC(=O)c2ccnc(C(C)(F)F)c2)cc1-c1cc(N2CCOC[C@H]2C)n(C)c(=O)c1 [Example 523, (R)-2-(1,1-difluoroethyl)-N-(4-methyl-3-(1-methyl-6-(3-methylmorpholino)-2-oxo-1,2-dihydropyridin-4-yl)phenyl)isonicotinamide]
- IC50 [1]: 3.7 nM

Structure (SMILES): CCNc1nc(-c2cc(NC(=O)c3ccnc(C(C)(C)C#N)c3)ccc2C)cc(N2CCOCC2)n1 [Example 717, 2-(2-cyanopropan-2-yl)-N-(3-(2-(ethylamino)-6-morpholinopyrimidin-4-yl)-4-methylphenyl)isonicotinamide]
- IC50 [1]: 2.9 nM

Structure (SMILES): Cc1ccc(NC(=O)c2cccc(C(F)(F)F)c2)cc1-c1nc(N2CCOCC2)c2[nH]ccc2n1 [Example 830, N-(4-methyl-3-(4-morpholino-5H-pyrrolo[3,2-d]pyrimidin-2-yl)phenyl)-3-(trifluoromethyl)benzamide]
- IC50 [1]: 0.6 nM

Structure (SMILES): Cc1ccc(NC(=O)c2ccnc(C(C)(F)F)c2)cc1-c1cc(N2CCOCC2)c(=O)n(CCC#N)c1 [Example 334, N-(3-(1-(2-cyanoethyl)-5-morpholino-6-oxo-1,6-dihydropyridin-3-yl)-4-methylphenyl)-2-(1,1-difluoroethyl)isonicotinamide]
- IC50 [3]: 2.3 nM

Structure (SMILES): Cc1ncc(NC(=O)c2ccnc(C(C)(C)F)c2)cc1-c1cc(NCCO)nc(N2CCOC[C@H]2C)c1 [Example 1138, (R)-2-(2-fluoropropan-2-yl)-N-(2′-((2-hydroxyethyl)amino)-2-methyl-6′-(3-methylmorpholino)-[3,4′-bipyridin]-5-yl)isonicotinamide]
- IC50 [2]: 27.8 nM

Structure (SMILES): CCOc1cc(-c2cc(NC(=O)c3ccnc(C(C)(C)F)c3)cnc2C)cc(N2CCOCC2)n1 [Example 1142, N-(2′-ethoxy-2-methyl-6′-morpholino-[3,4′-bipyridin]-5-yl)-2-(2-fluoropropan-2-yl)isonicotinamide]
- IC50 [2]: 3.18 nM

Structure (SMILES): Cc1ccc(NC(=O)c2ccnc(C(C)(F)F)c2)cc1-c1cc(N2CCOCC2)nc(N(C)C)n1 [Example 756, 2-(1,1-difluoroethyl)-N-(3-(2-(dimethylamino)-6-morpholinopyrimidin-4-yl)-4-methylphenyl)isonicotinamide]
- IC50 [1]: 4.2 nM

Structure (SMILES): Cc1ccc(NC(=O)c2ccnc(C(F)(F)F)c2)cc1-c1cc(NC2CCOC2)nc(N2CCOCC2)c1 (stereo not drawn) [Example 1054, N-(4-methyl-3-(2-morpholino-6-((tetrahydrofuran-3-yl)amino)pyridin-4-yl)phenyl)-2-(trifluoromethyl)isonicotinamide]
- IC50 [2]: 1.18 nM

Structure (SMILES): COc1ncc(-c2cc(NC(=O)c3ccnc(C(F)(F)F)c3)cnc2C)cc1N1CCOCC1 [Example 324, N-(6′-methoxy-2-methyl-5′-morpholino-[3,3′-bipyridin]-5-yl)-2-(trifluoromethyl)isonicotinamide]
- IC50 [3]: 7.4 nM

Structure (SMILES): Cc1ccc(NC(=O)c2ccnc(C(C)(F)F)c2)cc1-c1cc(N2C3CCC2COC3)n(C)c(=O)c1 [Example 527, N-(3-(6-(3-oxa-8-azabicyclo[3.2.1]octan-8-yl)-1-methyl-2-oxo-1,2-dihydropyridin-4-yl)-4-methylphenyl)-2-(1,1-difluoroethyl)isonicotinamide]
- IC50 [1]: 5.6 nM

Structure (SMILES): Cc1ccc(NC(=O)c2cc(C(C)C)on2)cc1-c1cc(N2CCOCC2)c(=O)n(C)c1 [Example 371, 5-isopropyl-N-(4-methyl-3-(1-methyl-5-morpholino-6-oxo-1,6-dihydropyridin-3-yl)phenyl)isoxazole-3-carboxamide]
- IC50 [3]: 0.8 nM

Structure (SMILES): COC(=O)NCCn1cc(-c2cc(NC(=O)c3cccc(C(F)(F)F)c3)cnc2C)cc(N2CCOCC2)c1=O [Example 193, methyl(2-(2′-methyl-5-morpholino-6-oxo-5′-(3-(trifluoromethyl)benzamido)-[3,3′-bipyridin]-1(6H)-yl)ethyl)carbamate]
- IC50 [3]: 100 nM

Structure (SMILES): Cc1ccc(NC(=O)c2ccnc(C(C)(F)F)c2)cc1-c1cnc(OCCO)c(N2CCOCC2)c1 [Example 1000, 2-(1,1-difluoroethyl)-N-(3-(6-(2-hydroxyethoxy)-5-morpholinopyridin-3-yl)-4-methylphenyl)isonicotinamide]
- IC50 [2]: 2.15 nM

Structure (SMILES): CCOc1ncc(-c2cc(NC(=O)c3cccc(C(F)(F)F)c3)cnc2C)nc1N1CCOCC1 [Example 539, N-(5-(5-ethoxy-6-morpholinopyrazin-2-yl)-6-methylpyridin-3-yl)-3-(trifluoromethyl)benzamide]
- IC50 [1]: 2.8 nM

Structure (SMILES): Cc1ccc(NC(=O)c2ccnc(C(C)(F)F)c2)cc1-c1cc(N2CCOC(C)(C)C2)c(=O)n(C)n1 [Example 667, 2-(1,1-difluoroethyl)-N-(3-(5-(2,2-dimethylmorpholino)-1-methyl-6-oxo-1,6-dihydropyridazin-3-yl)-4-methylphenyl)isonicotinamide]
- IC50 [1]: 3.4 nM

Structure (SMILES): CCOc1nnc(-c2cc(NC(=O)c3ccnc(C(F)(F)CC)c3)cnc2C)cc1N1CCOCC1 [Example 617, 2-(1,1-difluoropropyl)-N-(5-(6-ethoxy-5-morpholinopyridazin-3-yl)-6-methylpyridin-3-yl)isonicotinamide]
- IC50 [1]: 3.5 nM

Structure (SMILES): Cc1cc(C(=O)Nc2ccc(C)c(-c3cc(N4CCOCC4)c(=O)n(C)c3)c2)n(C)n1 [Example 381, 1,3-dimethyl-N-(4-methyl-3-(1-methyl-5-morpholino-6-oxo-1,6-dihydropyridin-3-yl)phenyl)-1H-pyrazole-5-carboxamide]
- IC50 [3]: 100 nM

Structure (SMILES): Cc1ccc(NC(=O)c2cc(C(F)(F)F)ccn2)cc1-c1cc(N2CCOCC2)c(OCCO)nn1 [Example 586, N-(3-(6-(2-hydroxyethoxy)-5-morpholinopyridazin-3-yl)-4-methylphenyl)-4-(trifluoromethyl)picolinamide]
- IC50 [1]: 1 nM

Structure (SMILES): Cc1ccc(NC(=O)c2cccc(C(F)(F)F)c2)cc1-c1cnc(N2CCOCC2)s1 [Example 198, N-(4-methyl-3-(2-morpholinothiazol-5-yl)phenyl)-3-(trifluoromethyl)benzamide]
- IC50 [3]: 0.8 nM

Structure (SMILES): Cc1ncc(NC(=O)c2ccnc(C(C)C)c2)cc1-c1cc(N2CCOCC2)nc(N2CCOCC2)c1 [Example 1119, 2-isopropyl-N-(2-methyl-2′,6′-dimorpholino-[3,4′-bipyridin]-5-yl)isonicotinamide]
- IC50 [2]: 2 nM

Structure (SMILES): COc1cc(-c2cc(NC(=O)c3cccc(C(F)(F)F)c3)ccc2C)nc(N2CCOCC2)c1 [Example 196, N-(3-(4-methoxy-6-morpholinopyridin-2-yl)-4-methylphenyl)-3-(trifluoromethyl)benzamide]
- IC50: 1.5 nM

Structure (SMILES): Cc1ccc(NC(=O)c2cccc(S(C)(=O)=O)c2)cc1-c1cc(N2CCOCC2)n(C)c(=O)c1 [Example 488, N-(4-methyl-3-(1-methyl-6-morpholino-2-oxo-1,2-dihydropyridin-4-yl)phenyl)-3-(methylsulfonyl)benzamide]
- IC50 [1]: 1.9 nM

Structure (SMILES): Cc1ccc(NC(=O)c2ccnc(C(C)(F)F)c2)cc1-c1cc(N2CCOCC2)c(S(C)(=O)=O)nn1 [Example 929, 2-(1,1-difluoroethyl)-N-(4-methyl-3-(6-(methylsulfonyl)-5-morpholinopyridazin-3-yl)phenyl)isonicotinamide]
- IC50 [2]: 1.05 nM

Structure (SMILES): Cc1ccc(NC(=O)c2ccnc(S(C)(=O)=O)c2)cc1-c1cc(N2CCOCC2)c(OC2CCOCC2)nn1 [Example 582, N-(4-methyl-3-(5-morpholino-6-((tetrahydro-2H-pyran-4-yl)oxy)pyridazin-3-yl)phenyl)-2-(methylsulfonyl)isonicotinamide]
- IC50 [1]: 0.8 nM

Structure (SMILES): Cc1ncc(NC(=O)c2ccnc(C(C)(F)F)c2)cc1-c1cc(N2CCOCC2)c(OC2CCOCC2)nn1 [Example 628, 2-(1,1-difluoroethyl)-N-(6-methyl-5-(5-morpholino-6-((tetrahydro-2H-pyran-4-yl)oxy)pyridazin-3-yl)pyridin-3-yl)isonicotinamide]
- IC50 [1]: 1.8 nM

Structure (SMILES): CCNc1nc(-c2cc(NC(=O)c3ccnc(C4(C#N)CC4)c3)ccc2C)cc(N2CCOCC2)n1 [Example 708, 2-(1-cyanocyclopropyl)-N-(3-(2-(ethylamino)-6-morpholinopyrimidin-4-yl)-4-methylphenyl)isonicotinamide]
- IC50 [1]: 0.5 nM

Structure (SMILES): CCN1CCN(c2cc(C(=O)Nc3cnc(C)c(-c4cc(N5CCOCC5)c(=O)n(C)c4)c3)cc(C(F)(F)F)c2)CC1 [Example 402, N-(1′,2-dimethyl-5′-morpholino-6′-oxo-1′,6′-dihydro-[3,3′-bipyridin]-5-yl)-3-(4-ethylpiperazin-1-yl)-5-(trifluoromethyl)benzamide]
- IC50 [3]: 100 nM

Structure (SMILES): Cc1ccc(NC(=O)c2cnnc(C3CC3)c2)cc1-c1cc(OC2CCOCC2)nc(N2CCOCC2)c1 [Example 1154, 6-cyclopropyl-N-(4-methyl-3-(2-morpholino-6-((tetrahydro-2H-pyran-4-yl)oxy)pyridin-4-yl)phenyl)pyridazine-4-carboxamide]
- IC50 [2]: 0.6 nM

Structure (SMILES): Cc1ccc(NC(=O)c2ccnc(C(C)(C)O)c2)cc1-c1cc(N2CCOCC2)c2nccn2n1 [Example 841, 2-(2-hydroxypropan-2-yl)-N-(4-methyl-3-(8 morpholinoimidazo[1,2-b]pyridazin-6-yl)phenyl)isonicotinamide]
- IC50 [1]: 1.7 nM

Structure (SMILES): Cc1ncc(NC(=O)c2ccnc(C(F)(F)F)c2)cc1-c1cc(NCCO)nc(N2CCOCC2)c1 [Example 1040, N-(2′-((2-hydroxyethyl)amino)-2-methyl-6′-morpholino-[3,4′-bipyridin]-5-yl)-2-(trifluoromethyl)isonicotinamide]
- IC50 [2]: 4.35 nM
